Test results: article PMC10958225, “Therapeutic potential of orally applied KB-R7943 in streptozotocin-induced neuropathy in rats” (Heliyon, 2024)
Where two headings read alike, the source gives them in different places.

Assay: Pilot PK study of orally applied KB-R7943 in control and STZ-induced diabetic rats (LC-MS/MS)
Assay type: in vivo, rat
Conditions: for AUC(0-inf) / Cmax / Tmax / half-life / AUC(0-t) / Kp: Wistar, rat, po, 10 mg/kg; for AUC(0-t): read-out: AUC(0-24); for Kp: read-out: AUC(0-24) tissue/AUC (0-24) plasma; for Vd (volume of distribution): dose/(λ × AUC 0–24); for Cl (clearance): dose/AUC0-24
Method: Chromatographic separation was achieved by injecting 5 μL of the sample extract (on each instrument) into a Zorbax SB-C8 150 mm × 4.6 mm × 1.8 μm column. The mobile phase was a mixture in a gradient mode of two components: solvent A - 0.1% formic acid in water and solvent B - 0.1% formic acid in acetonitrile. The flow rate was set to 0.400 ml/min with the following gradient program: 0.0–0.5 min 90% solvent A, 0.5–10.0 min 10% solvent A, 10.0–12.0 min 10% solvent A, 12.0–12.1 min 90% solvent A, 12.1–13.0 min 90% solvent A. Mass spectrometric detection was performed with positive electrospray (ESI(+)). Analytes were determined by selecting two characteristic target reactions (MRM transitions) and the retention time of the analytes. The following MS parameters were kept constant during the analysis: nebulizer voltage 4800 V for positive ionization. The temperature of the cone was set at 300 °C, the temperature of the heated probe at 400 °C, the gas flowed through the nebulizer at 3 l/min, and the flow rate of the drying gas was 10 l/min. Two product ions and one precursor ion were selected for analyte identification (Table 1).
200 mg of the sample (plasma, urine, homogenate) was transferred into 1.5 ml Eppendorf tubes, 10 μl of the internal standard solution was added and thoroughly mixed using a rotary shaker, and then 1 ml of the extracting solution of 0.1% formic acid in acetonitrile, was added. After ultrasonic stirring for 15 min, the tubes were centrifuged at 14,000 rpm for 5 min. Approximately 1 ml of the supernatant was decanted and transferred to a 15 ml Falcon plastic tube, 1 ml of the extracting solution (0.1% formic acid in acetonitrite) was added to the precipitate, and the extraction procedure was repeated. […] successive extracts were combined, 3 ml of hexane was added, and mixed on a rotary shaker for 5 min, after which the top layer of hexane was separated, and the purification procedure was repeated 2 more times. The purified extract was transferred to a 5 ml glass vial and evaporated to dryness in an FMS Super Vap 24 at 45 °C under nitrogen flow. 200 μL of the extractant was added to the vials, and the remains of the analyte were washed off the walls of the vial by stirring the solution on a rotary shaker for 3 min, after which the resulting solution was transferred into glass vials for HPLC analysis. With each batch of samples, appropriate matrix controls were prepared and extracted with the addition of KB- R7943 at 0, 0.1, 1, 10, 100, 1000, 5000, 20,000, and 200,000 ng/g and extracted simultaneously with the samples (Fig. 2).
Experiment 1 (Fig. 3A) was designed as a pilot PK study to assess the body distribution of orally applied KB-R7943 and to inform about some important PK parameters. Two groups, i.e., controls (n = 9) and STZ-induced diabetic models (n = 9), were included in the experiment. Each rat was placed in an individual metabolic cage and kept there until the administration of the drug. The KB-R7943 was applied once, p.o., in a 10 mg/kg dose with gavage. OraPlus was a vehiculum (16 gauge feeding tube 10 ml/kg). After applying of the KB-R7943, each rat was returned to their cage, and blood and urine samples were collected at 1st, 6th, and 24th hours (different n = 3 at each time-point). Metabolic cages were specially designed to separate feces from urine through the funnel, and a separation cone was used.
Blood samples were collected in EDTA-containing tubes with cardiopunction under ketamine-xylasine anesthesia (100 mg/kg and 10 mg/kg, respectively). After 1 h incubation (+4/+8 °C), blood was centrifugated 1000 g, and the plasma was used for the analysis after that.
Isolation of tissue samples of the heart and parts of the brain was performed after perfusion of the upper body of the rat with a phosphate-buffered saline (PBS) using a perfusion pump (BT100-2J LongerPump, Halma PLC, UK). Homogenates were prepared as 1:4 ratios (v/v) with PBS and stored at −80 °C until analysis. […]

[1] = AUC tissue/AUC plasma, 10 mg/kg p.o. once
[2] = cortex, STZ-diabetic rats, 10 mg/kg p.o. once
[3] = cortex, control rats, 10 mg/kg p.o. once
[4] = cortex, cortex, STZ-diabetic rats, 10 mg/kg p.o. once
[5] = cortex, cortex, control rats, 10 mg/kg p.o. once
[6] = heart, STZ-diabetic rats, 10 mg/kg p.o. once
[7] = heart, control rats, 10 mg/kg p.o. once
[8] = hippocampus, STZ-diabetic rats, 10 mg/kg p.o. once
[9] = hippocampus, control rats, 10 mg/kg p.o. once
[10] = hippocampus, hippocampus, STZ-diabetic rats, 10 mg/kg p.o. once
[11] = hippocampus, hippocampus, control rats, 10 mg/kg p.o. once
[12] = hypothalamus, STZ-diabetic rats, 10 mg/kg p.o. once
[13] = hypothalamus, control rats, 10 mg/kg p.o. once
[14] = hypothalamus, hypothalamus, STZ-diabetic rats, 10 mg/kg p.o. once
[15] = hypothalamus, hypothalamus, control rats, 10 mg/kg p.o. once
[16] = plasma, STZ-diabetic rats, 10 mg/kg p.o. once
[17] = plasma, control rats, 10 mg/kg p.o. once
[18] = urine, STZ-diabetic rats, 10 mg/kg p.o. once
[19] = urine, control rats, 10 mg/kg p.o. once

N=C(N)SCCc1ccc(OCc2ccc([N+](=O)[O-])cc2)cc1 [KB-R7943, [(2-{4-[(4-nitrophenyl)methoxy]phenyl}ethyl)sulfanyl]methanimidamide]
heart penetration, times higher in control group vs. diabetic rats [1]: 1.2 times | hippocampus penetration, times higher in control group vs. diabetic rats [1]: over 2.5 times | AUC(0-inf) [2]: 1000 ng·h/mL | Cmax [2]: 103 ng/mL | Tmax [2]: 1 h | half-life [2]: 7.7 h | Cmax [3]: 11.5 ng/mL | Tmax [3]: 24 h | AUC(0-t) [4]: 880 ng·h/mL | Kp [4]: 14.5 | AUC(0-t) [5]: 232 ng·h/mL | Kp [5]: 14.2 | Cmax [6]: 5600 ng/mL | Tmax [6]: 1 h | half-life [6]: 5.7 h | Cmax [7]: 893 ng/mL | Tmax [7]: 1 h | half-life [7]: 7 h | Kp (heart, heart, STZ-diabetic rats, 10 mg/kg p.o. once): 499 | Kp (heart, heart, control rats, 10 mg/kg p.o. once): 622 | AUC(0-inf) [8]: 865 ng·h/mL | Cmax [8]: 57 ng/mL | Tmax [8]: 1 h | half-life [8]: 11.6 h | Cmax [9]: 39.6 ng/mL | Tmax [9]: 24 h | AUC(0-t) [10]: 645 ng·h/mL | Kp [10]: 10.7 | AUC(0-t) [11]: 449 ng·h/mL | Kp [11]: 27.4 | AUC(0-inf) [12]: 1020 ng·h/mL | Cmax [12]: 75 ng/mL | Tmax [12]: 1 h | half-life [12]: 13.7 h | Cmax [13]: 9.5 ng/mL | Tmax [13]: 24 h | AUC(0-t) [14]: 668 ng·h/mL | Kp [14]: 11 | AUC(0-t) [15]: 215 ng·h/mL | Kp [15]: 13.1 | AUC(0-inf) [16]: 61.7 ng·h/mL | Cmax [16]: 11 ng/mL | Tmax [16]: 1 h | half-life [16]: 4.2 h | AUC(0-inf) [17]: 17.7 ng·h/mL | Cmax [17]: 3.2 ng/mL | Tmax [17]: 1 h | half-life [17]: 6.1 h | AUC(0-t) (plasma, plasma, STZ-diabetic rats, 10 mg/kg p.o. once): 60.6 ng·h/mL | AUC(0-t) (plasma, plasma, control rats, 10 mg/kg p.o. once): 16.4 ng·h/mL | Tmax (plasma, systemic circulation after oral application, rats): ~1 h | Cmax [18]: 59.3 ng/mL | Tmax [18]: 24 h | Cmax [19]: 47.2 ng/mL | Tmax [19]: 24 h | AUC(0-t) (urine, urine, STZ-diabetic rats, 10 mg/kg p.o. once): 974 ng·h/mL | AUC(0-t) (urine, urine, control rats, 10 mg/kg p.o. once): 727 ng·h/mL | β of linear regression Ln(Conc) vs time (cortex concentration, controls, 10 mg/kg p.o. once): β = 0.015, p = 0.703 | β of linear regression Ln(Conc) vs time (cortex concentration, diabetes, 10 mg/kg p.o. once): β = −0.075, p = 0.008 | %Extrap [2]: 12,20% | ƛ (terminal slope) [2]: −0.07 | %Extrap [3]: 142,00% | ƛ (terminal slope) [3]: 0.02 | β of linear regression Ln(Conc) vs time (heart concentration, controls, 10 mg/kg p.o. once): β = −0.107, p = 0.003 | β of linear regression Ln(Conc) vs time (heart concentration, diabetes, 10 mg/kg p.o. once): β = −0.125, p = 0.026 | %Extrap [6]: 6,20% | ƛ (terminal slope) [6]: −0.12 | %Extrap [7]: 8,4% | ƛ (terminal slope) [7]: −0.11 | β of linear regression Ln(Conc) vs time (hippocampus concentration, controls, 10 mg/kg p.o. once): β = −0.037, p = 0.283 | β of linear regression Ln(Conc) vs time (hippocampus concentration, diabetes, 10 mg/kg p.o. once): β = −0.048, p = 0.097 | %Extrap [8]: 25,40% | ƛ (terminal slope) [8]: −0.05 | ƛ (terminal slope) [9]: 0.04 | β of linear regression Ln(Conc) vs time (hypothalamus concentration, controls, 10 mg/kg p.o. once): β = −0.007, p = 0.830 | β of linear regression Ln(Conc) vs time (hypothalamus concentration, diabetes, 10 mg/kg p.o. once): β = −0.045, p = 0.127 | %Extrap [12]: 34,50% | ƛ (terminal slope) [12]: −0.04 | %Extrap [13]: 111,50% | ƛ (terminal slope) [13]: 0.01 | β of linear regression Ln(Conc) vs time (plasma concentration, controls, 10 mg/kg p.o. once): β = 0.094, p = 0.036 | β of linear regression Ln(Conc) vs time (plasma concentration, diabetes, 10 mg/kg p.o. once): β = 0.163, p = 0.017 | AUC(0-24), times higher in rats with diabetes vs. controls (plasma, 10 mg/kg p.o. once): Over 3 times | Vd, times lower in rats with diabetes vs. controls (plasma, 10 mg/kg p.o. once): over 7 times | decline of the plasma concentration, rats with diabetes vs. controls (plasma, 10 mg/kg p.o. once): over one and half times faster decline | systemic clearance, times lower in rats with diabetes vs. controls (plasma, 10 mg/kg p.o. once): over 4 times | %Extrap [16]: 1,90% | ƛ (terminal slope) [16]: −0.16 | Vd (volume of distribution) [16]: 288.78 L | Cl (clearance) [16]: 46.20 L/h | %Extrap [17]: 7,40% | Vd (volume of distribution) [17]: 2100.27 L | Cl (clearance) [17]: 189.02 L/h | β of linear regression Ln(Conc) vs time (urine concentration, controls, 10 mg/kg p.o. once): β = −0.074, p = 0.158 | β of linear regression Ln(Conc) vs time (urine concentration, diabetes, 10 mg/kg p.o. once): β = −0.041, p = 0.455 | %Extrap [18]: 196,30% | ƛ (terminal slope) [18]: −0.04 | ƛ (terminal slope) [19]: 0.07
